The values that follow come from ChEMBL document CHEMBL1139678, “Design and synthesis of novel N-sulfonyl-2-indole carboxamides as potent PPAR-gamma binding agents with potential application to the treatment of osteoporosis” (Bioorg Med Chem Lett, 2006).

Series [1] addresses T1, Peroxisome proliferator-activated receptor gamma (Homo sapiens, UniProt P37231).
T1 sequence (P37231 whole entry): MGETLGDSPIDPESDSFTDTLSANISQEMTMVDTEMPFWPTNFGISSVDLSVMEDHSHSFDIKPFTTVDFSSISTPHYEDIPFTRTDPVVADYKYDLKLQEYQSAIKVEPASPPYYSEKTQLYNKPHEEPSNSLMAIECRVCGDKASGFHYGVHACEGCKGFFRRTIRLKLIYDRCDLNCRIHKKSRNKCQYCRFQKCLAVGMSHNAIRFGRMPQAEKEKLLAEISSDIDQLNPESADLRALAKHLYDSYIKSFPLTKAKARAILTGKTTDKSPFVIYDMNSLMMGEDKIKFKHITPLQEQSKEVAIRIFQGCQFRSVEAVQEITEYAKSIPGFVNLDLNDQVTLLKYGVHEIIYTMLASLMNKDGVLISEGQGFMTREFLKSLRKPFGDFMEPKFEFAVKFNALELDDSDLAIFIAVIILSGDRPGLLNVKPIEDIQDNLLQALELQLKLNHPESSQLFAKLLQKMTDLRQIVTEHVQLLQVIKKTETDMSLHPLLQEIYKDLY
Put plainly: Displacement of Fluormone from PPAR gamma.

The next series has as its system Osteoblast. Briefly: Induction of osteoblast differentiation assessed as stimulation of alkaline phosphatase in MC3T3-E1 cells. It is filed as functional, cell-based. As to conditions: Mus musculus.
Series [2] is described as follows: Solubility of the compound. It counts as physicochemical.

≈ marks a conversion by molar mass, not a printed value. Calls of active or inactive are those of the source. The calls are words filed in the database; no cut-off is given here.

For orientation: IC50 means the midpoint of a concentration-inhibition curve. The term EC50 denotes the concentration at which the effect is half-maximal. A word on the solubility: it is the concentration that dissolves in the medium under given conditions.

Consider `O=C(NS(=O)(=O)c1cccc(C(F)(F)F)c1)c1cc2ccccc2n1Cc1ccccc1`, for which, in series [1], the IC50 came out at 0.28 µM. `COc1ccc(-c2c(C(=O)NS(C)(=O)=O)n(Cc3cccc(C(F)(F)F)c3)c3ccccc23)cc1` returned a half-inhibitory concentration (IC50) in series [1] of 0.002 µM. On to `COc1ccc(-c2c(C(=O)NS(=O)(=O)c3ccccc3)n(Cc3cccc(C(F)(F)F)c3)c3ccccc23)cc1`, for which, in the series with Osteoblast, the half-maximal effective concentration (EC50) came out at 0.1 µM. For the same compound, the concentration in solution in series [2] (solubility) came to 5 µg/mL (≈ 8.86 µM). For the compound `CN(CCOc1ccc(CC2SC(=O)NC2=O)cc1)c1ccccn1` (configuration not stated), in the series with Osteoblast, the outcome was inactive. Turning to `CCn1c(C(=O)NS(=O)(=O)c2cccc(C(F)(F)F)c2)cc2ccccc21`, the IC50 in series [1] was found to be 2.44 µM. On the same count and under the same terms, the figure for `O=C(NS(=O)(=O)c1cccc(C(F)(F)F)c1)c1cc2ccccc2n1Cc1ccc(C(F)(F)F)cc1` is 0.4 µM; for `O=C(NS(=O)(=O)c1cccc(C(F)(F)F)c1)c1cc2ccccc2n1Cc1cccc(OCc2ccccc2)c1` it is 0.05 µM.

Consider `O=C(NS(=O)(=O)c1cccc(C(F)(F)F)c1)c1cc2ccccc2n1C(=O)c1cccc(C(F)(F)F)c1`, for which the IC50 in series [1] amounted to 9.4 µM. In turn, `O=C(NS(=O)(=O)c1ccc2ccccc2c1)c1cc2ccccc2n1Cc1cccc(C(F)(F)F)c1` came in with a concentration for half-maximal inhibition (IC50) in series [1] of 0.09 µM. Compound `O=C(NS(=O)(=O)c1cccc(C(F)(F)F)c1)c1cc2cc(OCc3ccccc3)ccc2n1Cc1cccc(C(F)(F)F)c1` returned an IC50 in series [1] of 0.77 µM. Against the preceding compound, the IC50 is about 8.6-fold higher.

Take `O=C(NS(=O)(=O)c1ccc(Cl)s1)c1cc2ccccc2n1Cc1cccc(C(F)(F)F)c1`: the IC50 in series [1] stood at 0.08 µM. Still for that read-out and setting: the figure for `CC(C)(C)c1ccc(Cn2c(C(=O)NS(=O)(=O)c3cccc(C(F)(F)F)c3)cc3ccccc32)cc1` is 0.33 µM; for `CS(=O)(=O)NC(=O)c1cc2ccccc2n1Cc1cccc(C(F)(F)F)c1` it is 0.68 µM.

For the compound `O=C(NS(=O)(=O)c1ccc(F)cc1)c1cc2ccccc2n1Cc1cccc(C(F)(F)F)c1`, the 50% inhibitory concentration (IC50) in series [1] came to 0.72 µM. In series [1], `O=C(NS(=O)(=O)c1cccc(C(F)(F)F)c1)c1cc2cc(O)ccc2n1Cc1cccc(C(F)(F)F)c1` came in with a concentration for half-maximal inhibition (IC50) of 0.54 µM. Same read-out and setting: under `COc1ccc(-c2c(C(=O)NS(=O)(=O)c3cccc(C(F)(F)F)c3)n(Cc3cccc(C(F)(F)F)c3)c3ccccc23)cc1` stands 0.06 µM; under `O=C(NS(=O)(=O)c1cccc(C(F)(F)F)c1)c1cc2ccccc2n1Cc1cccc(C(F)(F)F)c1`, 0.08 µM. Still for that read-out and setting: under `O=C(NS(=O)(=O)c1cccc(C(F)(F)F)c1)c1cc2ccccc2n1Cc1cccc(OC(F)(F)F)c1` stands 0.09 µM; under `COc1cccc(Cn2c(C(=O)NS(=O)(=O)c3cccc(C(F)(F)F)c3)cc3ccccc32)c1`, 0.14 µM. Compound `O=C(NS(=O)(=O)c1cccc(C(F)(F)F)c1)c1cc2cc(Cl)ccc2n1Cc1cccc(C(F)(F)F)c1` displayed a concentration for half-maximal inhibition (IC50) in series [1] of 0.33 µM. For `O=C(NS(=O)(=O)c1ccc(Cl)cc1)c1cc2ccccc2n1Cc1cccc(C(F)(F)F)c1`, in the series with Osteoblast, the concentration giving a half-maximal response (EC50) came to 1 µM. In series [1], this compound displayed an IC50 of 0.28 µM. Turning to `O=C(NS(=O)(=O)c1cccc(C(F)(F)F)c1)c1cc2ccccc2n1Cc1cc(Cl)ccc1Cl`, in series [1], the IC50 was 0.38 µM. In other words, the sub-micromolar range.

With `COC(=O)c1ccccc1S(=O)(=O)NC(=O)c1c(-c2ccc(OC)cc2)c2ccccc2n1Cc1cccc(C(F)(F)F)c1`, the half-maximal effective concentration (EC50) with Osteoblast came to 1 µM. In series [1], the half-inhibitory concentration (IC50) is 0.001 µM. Compound `O=C(NS(=O)(=O)c1ccccc1)c1cc2ccccc2n1Cc1cccc(C(F)(F)F)c1` came in with a concentration for half-maximal inhibition (IC50) in series [1] of 0.29 µM.

In turn, `COc1ccc(-c2c(C(=O)NS(=O)(=O)c3ccccc3C)n(Cc3cccc(C(F)(F)F)c3)c3ccccc23)cc1` came in with a half-inhibitory concentration (IC50) in series [1] of 0.007 µM. For `Cc1ccc(S(=O)(=O)NC(=O)c2cc3ccccc3n2Cc2cccc(C(F)(F)F)c2)cc1`, in series [1], the IC50 was found to be 0.29 µM. Turning to `O=C(NS(=O)(=O)c1ccccc1C(F)(F)F)c1cc2ccccc2n1Cc1cccc(C(F)(F)F)c1`, in series [1], the 50% inhibitory concentration (IC50) was determined as 0.08 µM. For the compound `Cc1ccccc1S(=O)(=O)NC(=O)c1cc2ccccc2n1Cc1cccc(C(F)(F)F)c1`, the IC50 in series [1] worked out at 0.18 µM. Take `COc1ccc(-c2c(C(=O)NS(=O)(=O)c3ccc(F)cc3)n(Cc3cccc(C(F)(F)F)c3)c3ccccc23)cc1`: the IC50 in series [1] was 0.007 µM. Against the preceding compound, the IC50 is about 26-fold lower.
